Measured values: article PMC12526212, “Novel Isolongifolenone-Based Caprolactam Derivatives as Potential Anticancer Agents via the p53/mTOR/Autophagy Pathway” (Molecules, 2025)

How the values were obtained:
[1] = tested on: MCF-7 cells; experiment: Autophagy assay using transmission electron microscopy; type: cell-based, human; details: 24 h
Description: (§1) To investigate whether E10 induced autophagy in MCF-7 cells, we performed Monodansylcadaverine (MDC) staining, transmission electron microscopy (TEM), and Western blot analysis to evaluate autophagy-related markers. MDC is a fluorescent probe commonly used to detect the formation of autophagic vacuoles, as it specifically labels autophagosomes.
MCF-7 cells were treated with E10 for 24 h. Cells were washed twice with pre-cold PBS, fixed in 2% glutaraldehyde at 4 °C for 2 h. Then, the sample was post-fixed in 2% osmium tetroxide for 1 h at 4 °C in the dark. Samples were dehydrated through a graded ethanol series, infiltrated and embedded in Spurr’s resin, and polymerized at 60 °C overnight. Ultrathin sections (~70–90 nm) were cut on an ultramicrotome, mounted on copper grids, counterstained with uranyl acetate and lead citrate, and examined by transmission electron microscopy (JEM-100CX; JEOL, Tokyo, Japan) at the indicated magnifications.

[2] = tested on: MCF-7 cells; experiment: Monodansylcadaverine (MDC) staining assay for autophagy; type: cell-based, human; details: 24 h, compared with control; 3-MA as co-treatment with E10
Description: as §1
MDC is a staining indicator for the formation of autophagosome. MCF-7 cells were seeded at a density of 2 × 10^5 cells per well in 6-well plates. MCF-7 cells were inoculated into a 6-well plate, and the cells were treated with E10 for 24 h. The treated cells were washed twice with buffer and then stained with MDC (Beijing Solarbio Science & Technology Co., Ltd., Beijing, China) for 40 min. The cells were then detected under a fluorescence microscope (Carl Zeiss, Jena, Germany).

[3] = tested on: MCF-7 cells; experiment: Western blotting of autophagy, AMPK-mTOR and apoptosis proteins; type: cell-based, human
Description: MCF-7 exponentially growing cells were plated in 6-well plates (2 × 10^5 cells/well). Then, derivatives E10 (0.5, 1.0 and 2.0 μM) were added to the well. After incubation for an additional 48 h, the cell culture medium was removed, and the cells were washed twice with ice-cold PBS. Subsequently, the cells were lysed to extract the total protein and centrifuged at 12,000 rpm for 5 min at 4 °C using lysis buffer (Beyotime, Shanghai, China, Cat. # P0013E). All protein concentrations were determined using a BCA kit. Equal amounts of protein (20–30 µg per lane) were loaded onto the gel. An equal amount of protein was analyzed using 12% SDS-PAGE gels and transferred to Hybond-P membrane containing polyvinylidene difluoride (PVDF). The membranes were then blocked with BSA for 2 h at room temperature and incubated with primary antibodies against p-mTOR (ImmunoWay Biotechnology, Beijing, China, YP1444, 1:5000), P62 (Proteintech Group, Inc., Wuhan, China, 60268-1-IG, 1:5000), LC3-I/II (Proteintech Group, Inc., Wuhan, China, 10253-2-AP, 1:5000) and p-AMPK, AMPK, Bcl-2, Bax, Cleaved-caspase 7 (ImmunoWay Biotechnology, Beijing, China, YP0251, 1:5000) overnight at 4 °C and with secondary antibodies (AP-conjugated goat anti-rabbit or anti-mouse, 1:10,000) for 2 h. Densitometry was performed in ImageJ 2 within the linear range. Targets were normalized to β-actin (or to the corresponding total protein for phospho-target), then expressed relative to vehicle (0.1% DMSO = 1.0). Where indicated, ratios such as LC3-II/LC3-I and Bax/Bcl-2 were calculated per lane before statistics.

[4] = tested on: LO2; experiment: CCK-8 cytotoxicity on normal cell line LO2; type: cell-based; details: Homo sapiens, L02; normal liver cells, CCK-8, 48 h, mean ± SD of three experiments
Description: Three cancer cell lines (human breast adenocarcinoma cells MCF-7, human lung adenocarcinoma epithelial cells A549, and human hepatocellular carcinoma cells HepG2) were obtained from the Cell Bank of the Chinese Academy of Sciences (Shanghai, China). LO2 human normal liver cells were also purchased from STEM RECELL (Beijing, China, STM-CL-5770). The anti-proliferation activity of compounds was tested on three cancer cell lines. The cytotoxicity of compounds as tested on normal cell line (human normal liver cells LO2). Cells were seeded at a density of 5000 cells per well in 96-well plates. Natural product piperlongumine was used as the positive control. All experiments were performed in triplicate. Three cancer cell lines were cultured in High DMEM medium or RIPM 1640 containing 10% FBS (Sijiqing, Hangzhou, China) and 1% antibiotics at 37 °C in a 5% CO2 incubator. The experimental cells were seeded in a 96-well plate at 5000 cells per well and incubated for 24 h. The old medium was replaced with experimental medium, and the cells were cultured for 48 h. Afterward, 10 µL of CCK-8 solution was added to each well, and the cells were incubated for 3 h. The absorbance at 450 nm was measured using a microplate reader.

[5] = tested on: MCF-7 cells; experiment: Cell cycle assay (PI, flow cytometry); type: cell-based, human; details: 0.5, 1.0, 2.0 µM, 24 h
Description: As a cell progresses into different cell cycle phases, its DNA content varies because of DNA synthesis (which is required to prepare additional chromosome copies prior to cell division). Consequently, a flow cytometric analysis of DNA content can provide information on the number of cells in different cell cycle phases.
For cell cycle analysis, MCF-7 cells were seeded at a density of 2 × 10^5 cells per well in 6-well plates. MCF-7 cells were treated with different concentrations of compound E10 for 24 h. After that, the cells were washed with PBS twice, collected by trypsin enzymic digestion and centrifugation, and the collected cells were subsequently fixed with 70% ice-cold ethanol overnight at 4 °C. The cells were stained with PI (50 μg/mL) the next day. The cell cycle distributions were measured through flow cytometry (BD), and the data were analyzed by Modfit 5.1 software.

For `CC1(C)C2=CC(=O)N(C(=O)C=Cc3cccc(C(F)(F)F)c3)CC(C)(C)C23CCC1C3` (stereo not shown) [E10, 5,5,9,9-Tetramethyl-3-(3-(3-(trifluoromethyl)phenyl)acryloyl)-4,5,6,7,8,9-hexahydro-5a,8-methanobenzo[d]azepin-2(3H)-one], the “TEM, autophagic vesicles” value [1] was “presence of membrane-bound autophagic vesicles”, the “MDC staining, autophagosome formation” value [2] was “significantly increased the number of punctate green fluorescence signals” and the AMPK phosphorylation levels ([3]; E10 0.5, 1.0, 2.0 μM) was “increased”. The mTOR phosphorylation levels ([3]; E10 0.5, 1.0, 2.0 μM) was “strongly decreased”, the p62 expression ([3]; E10 0.5, 1.0, 2.0 μM) was “decrease” and the “LC3-I and LC3-II expression levels” value ([3]; after E10 treatment) was “up-regulated”. The Bax expression ([3]; compared with control) was “higher levels”, the Bcl-2 expression ([3]; compared with control) was “down-regulated” and the “cleaved caspase-7 expression” value ([3]; dose-dependent) was “dramatically up-regulated”. The p53 expression ([3]; dose-dependent) was “dramatically up-regulated”, the “ratio of LC3-II/LC3-I” value ([3]; increasing concentrations of E10 (0.5, 1.0, 2.0 μM)) was “increased gradually” and the IC50 [4] was 14.41 ± 0.04 µM. For the same molecule, the “effect on cell cycle” value [5] was “cell cycle arrest at the G0/G1 phase”.
